ChEMBL document CHEMBL3108755, “Dermacozines H-J isolated from a deep-sea strain of Dermacoccus abyssi from Mariana Trench sediments” (J Nat Prod, 2014)

Test system: Radical scavenging activity
Experiment: Antioxidant activity assessed as DPPH radical scavenging activity
Type: functional

| IC50 [µM] | Compound |
| --- | --- |
| 19.6 | CC(=O)NC(CSc1ccc(C(N)=O)c2c1Nc1c(C(N)=O)cc(C(=O)c3ccccc3)cc1N2C)C(=O)O (stereo not given) |
| 8.4 | CN1c2cc(C(=O)c3ccccc3)cc(C(=O)O)c2Nc2cccc(C(N)=O)c21 |
| 18.8 | CN1c2cc(C=O)cc(C(=O)O)c2Nc2cccc(C(N)=O)c21 |
| 34.6 | CN1c2cccc(C(N)=O)c2Nc2c(C(=O)c3ccccc3)ccc(C(N)=O)c21 |
| 12.1 | O=C1O[C@H]([C@@H](O)CO)C(O)=C1O [ASCORBIC ACID] |
